The source of these data is the METLIN SMRT retention time set (Domingo-Almenara et al. 2019).

This series can be described thus: gradient 5% acetonitrile 3 min, to 50% in 2 min, to 85% in 15 min, held 3 min, 100 µL/min. The conditions noted are these: column: Zorbax Extend-C18 2.1 x 50 mm; eluents: water / acetonitrile, 0.1% formic acid. Summed up:
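Retention time was recorded from adduct peaks, which were picked computationally and each inspected manually. Pure standards ran in mixtures of ~100 molecules on HPLC coupled to a quadrupole time-of-flight mass spectrometer, in positive and negative ionization mode, through a Zorbax Extend-C18 column (2.1 × 50 mm, 1.8 μm) at 100 μL/min. Eluents were water and acetonitrile, each with 0.1% formic acid.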
Consider `Cc1ccc(C)c(S(=O)(=O)Nc2ccc(-c3cn4ccc(C)nc4n3)cc2)c1`, for which the RP-LC retention time was found to be 678 s. `CC(C)n1c(N2CCN(C(=O)c3ccc4c(c3)OCO4)CC2)cc(=O)n(C(C)C)c1=O` returned an RP-LC retention time of 823 s. Under `COCCCCC(=NOCCN)c1ccc(C(F)(F)F)cc1` stands 734 s. As for `COc1ccc2[nH]c3c(c2c1)CCNC31CCN(C(=O)C2CCN2C2CCCCC2)CC1` (stereo not given), the RP-LC retention time was determined as 576 s.

`COc1ccc(NC(=O)Cn2c(N3CCOCC3)nc(C)cc2=O)cc1F` had an RP-LC retention time of 644 s. With `CCc1nc2nccc(-c3ccc(OC)c(OC)c3)n2n1`, the RP-LC retention time turned out to be 702 s.

Consider `COc1ccccc1NC(=O)Nc1c(-c2ccc(F)cc2)nc2ccccn12`, for which the RP-LC retention time was determined as 692 s. Molecule `O=C(CC1OC(=O)c2ccccc21)c1ccc(Br)cc1` (stereo not given) came in with an RP-LC retention time of 905 s. In the case of `CCCCC(=O)N1CCCN(C2=NS(=O)(=O)C(c3ccc(F)cc3)=C2C)CC1`, the RP-LC retention time amounted to 825 s. Under `Cc1cc(N2CCN(C)CC2)nc2ccc(NC(=O)Nc3ccc(F)cc3)cc12` stands 587 s; under `Nc1nnc(SCc2nnc(-c3ccccc3)o2)s1`, 654 s; under `Cc1ccn2cc(-c3ccc(NC(=O)c4ccccc4Cl)cc3)nc2n1`, 652 s. The molecule `COc1ccc(CNC(=O)Cc2cn(C)c3ncccc23)cc1OC` gave an RP-LC retention time of 616 s. In the case of `CC1=C(c2ccc(Cl)cc2)S(=O)(=O)N=C1N1CCCN(C(=O)C2CCCO2)CC1` (stereo not given) it was 758 s; in that of `N#Cc1ccc(C(=O)N2CCCC2c2nc(-c3cccc(C(F)(F)F)c3)no2)cc1` (stereo not given), 1060 s; in that of `CCn1cc(CC(=O)NCc2ccc(C)o2)c2cccnc21`, 682 s.

In turn, `CN(c1nc2ccccc2s1)C1CCN(C[C@H](O)COc2ccc(F)c(F)c2)CC1` gave an RP-LC retention time of 777 s. `COc1cccc(CN2N=C(C(=O)N3CCC(C)CC3)S(=O)(=O)c3ccc(C)cc32)c1`: the RP-LC retention time was 674 s. Molecule `CN1C(=O)C2CCCCN2c2ccc(C(=O)NCCc3c[nH]c4ccccc34)cc21` (stereo not given) showed an RP-LC retention time of 871 s.

Turning to `O=C(Cn1cccc1-c1nc(-c2ccc(Cl)cc2)cs1)NCCN1CCOCC1`, the RP-LC retention time was 711 s. In turn, `COc1cc(NC(=O)Cn2cnc3nc(N4CCCC4)ncc3c2=O)cc(OC)c1` showed an RP-LC retention time of 703 s.

`O=C(Nc1ccc(N2CCN(C3CCCCC3)C2=O)nc1)c1ccccc1` came in with an RP-LC retention time of 630 s. Regarding `CN(C(=O)Cn1cccc1-c1nc(-c2ccc3c(c2)OCO3)no1)c1ccccc1`, the RP-LC retention time came to 1090 s. Under `CCCNC(=O)N1CCCC(C)(C(=O)NCc2ccc(C)cc2)C1` (stereo not given) stands 799 s.

For `CCn1cc(-c2nc(C)c(C(=O)Nc3ccc(C(=O)OC)cc3)s2)c2cccnc21`, the RP-LC retention time stood at 1020 s.

Turning to `Cc1cc(-c2ccc(N3C(=O)CC4(CCCC4)C3=O)c(C)c2)ccc1N1C(=O)CC2(CCCC2)C1=O`, the RP-LC retention time was determined as 1170 s. `CC(CCc1ccco1)NC(=O)C1CCc2nc(N3CCCCC3)ncc2C1` (stereo not given) displayed an RP-LC retention time of 777 s. Take `O=C(NC1CCCC1)c1csc(-c2ccc(N3CCCCC3)nc2)n1`: the RP-LC retention time was 937 s. With `O=C(NCC1CCN(C(=O)c2cc3ccccc3o2)CC1)c1cc(Cl)ccc1Cl`, the RP-LC retention time was found to be 841 s. With `CCN(CC)S(=O)(=O)c1ccc2c(c1)cc(C(=O)NCCc1c[nH]c3ccc(Cl)cc13)n2C`, the RP-LC retention time amounted to 1060 s. The molecule `CN(Cc1ccccc1)C(=O)C(=O)c1c[nH]c2ccccc12` yielded an RP-LC retention time of 800 s. For `O=C(Cn1cncc(-c2nc(-c3cccs3)cs2)c1=O)Nc1cccc(Cl)c1`, the RP-LC retention time was found to be 941 s.

The molecule `O=S(=O)(c1cccnc1)N1CCCn2nc(-c3cccc(F)c3)cc2C1` yielded an RP-LC retention time of 698 s. In the case of `COc1ccc(Cn2c(=O)c3sccc3n(Cc3nc(-c4ccc(F)c(Cl)c4)no3)c2=O)cc1` it was 1190 s; in that of `CC1Cc2nc(SCC(=O)NCC3CCCO3)n(-c3ccc(F)cc3)c(=O)c2S1` (stereo not given), 728 s; in that of `Cc1cc(C)cc(NS(=O)(=O)c2cc(-c3[nH]ncc3C(=O)N3CCOCC3)oc2C)c1`, 731 s. In the case of `COCCN1CCC(N2CCN(S(=O)(=O)c3ccc(C(F)(F)F)cc3)CC2)C1=O` (stereo not given), the RP-LC retention time was determined as 625 s. As for `CC(=O)Oc1ccc(C(=O)N2CCCc3ccccc32)cc1`, the RP-LC retention time is 904 s.

Turning to `Cc1ccc(C)c(S(=O)(=O)N2CC(c3nc(Cc4ccccc4)no3)C2)c1`, the RP-LC retention time came out at 1040 s.

`O=C(c1nnn2c1COC(c1ccc(Cl)cc1)C2)N1CCN(C(=O)C2(c3ccccc3)CC2)CC1` (stereo not given) returned an RP-LC retention time of 996 s.

Molecule `C=CCN1C(=O)COc2ccc(-c3nc(NC(=O)C(CC)CC)sc3C)cc21` had an RP-LC retention time of 1050 s.

Regarding `CC(C)(C)CC(=O)N1CC2CN(S(=O)(=O)c3cccc(F)c3)CC(C1)O2`, the RP-LC retention time was determined as 834 s. Under `CC(C)n1c(=O)oc2cc(-c3noc(-c4ccccc4Br)n3)ccc21` stands 1220 s; under `COc1ccc([N+](=O)[O-])cc1NS(=O)(=O)c1ccc(C)cc1`, 961 s. `CN1CCN(CCNC(=O)C2CCN(c3nc4ccccc4n(C)c3=O)CC2)CC1` had an RP-LC retention time of 588 s. For the molecule `CN(CC1CCOC1)S(=O)(=O)Cc1ccccc1F` (stereo not given), the RP-LC retention time worked out at 755 s. Molecule `CCOc1ccccc1-c1noc(Cn2c(=O)n(CC(C)C)c(=O)c3ccccc32)n1` showed an RP-LC retention time of 1150 s. `COC(=O)Nc1ccc(CC(=O)NCC(F)(F)F)cc1`: the RP-LC retention time worked out at 639 s. In the case of `CCc1ccc(C2=C(C)C(N3CCC(C(=O)NCCCN4CCCC4)CC3)=NS2(=O)=O)cc1`, the RP-LC retention time is 604 s. The molecule `Cc1nc(C)c(C(=O)N2CC(Oc3cccc(-c4nc(-c5ccccc5)no4)c3)C2)s1` returned an RP-LC retention time of 1110 s. In turn, `Cc1cc(C)n2c(Nc3c(C)cccc3C)c(-c3ccc(Cl)cc3)nc2n1` displayed an RP-LC retention time of 815 s. The molecule `O=S(=O)(Cc1ccccc1F)N1CCCCC1c1nc(-c2ccccc2)n[nH]1` (stereo not given) registered an RP-LC retention time of 948 s. As for `COc1cccc(-c2noc(Cc3nnc(-c4ccc(C)c(C)c4)o3)n2)c1OC`, the RP-LC retention time came out at 1060 s.

`CN(CC1CCOC1)C(=O)c1ccc(F)cc1F` (stereo not given) had an RP-LC retention time of 683 s. For `Clc1ccc(Cl)c(-c2ccc(CNC3CC3)o2)c1`, the RP-LC retention time amounted to 698 s.

The molecule `COc1ccc([N+](=O)[O-])cc1NC(=O)N(C)Cc1ccco1` had an RP-LC retention time of 922 s. The molecule `Cc1ccc(CN2CC(Oc3ccc(-c4noc(C5CCOCC5)n4)cc3)C2)o1` showed an RP-LC retention time of 686 s. As to `CCCC(=O)Nc1ccc2c(c1)CN(C(=O)c1ccc(F)cc1F)C(C(=O)N(C)C)C2` (stereo not given), the RP-LC retention time worked out at 704 s. On to `OC[C@H]1OC(n2cnc3c(N[C@H]4CCC[C@@H]4O)ncnc32)[C@H](O)[C@@H]1O` (stereo not given in full), for which the RP-LC retention time turned out to be 551 s. For the molecule `CNC(=O)c1cc(=O)[nH]c2ccccc12`, the RP-LC retention time was 580 s. Take `O=S(=O)(Nc1ccc(-c2noc(COc3ccc(F)cc3)n2)cc1)c1cccs1`: the RP-LC retention time turned out to be 1040 s. In turn, `CN1CCN(CCNC(=O)CCCn2c(=O)c3cccn3c3ccc(F)cc32)CC1` returned an RP-LC retention time of 588 s. In the case of `CC(C)c1nccn1C1CN(C(=O)COc2ccccc2)C1` it was 596 s; in that of `Cc1ccc(C2CN(S(=O)(=O)c3ccccc3)CCN2C)cc1` (stereo not given), 603 s. In the case of `CCC(=O)N1CCc2cc(N3CC(C(=O)N4CCN(C)CC4)CC3=O)ccc21` (stereo not given), the RP-LC retention time is 563 s. In the case of `CCOc1ccc(NC(=O)N2CCCC2c2cc(C)on2)cc1` (stereo not given) it was 854 s; in that of `Cc1ccc(Cl)cc1NC(=O)N1CCC(c2nc3ccncc3n2C(C)C)C1` (stereo not given), 573 s; in that of `CC(C)n1cnc2cc(CNC(=O)c3ccc(C#N)cc3F)ccc21`, 597 s.

In turn, `CN1CCN(CCNC(=O)c2nn(-c3ccc(Cl)cc3)c3c(=O)n(C)cnc23)CC1` had an RP-LC retention time of 602 s.

`CC(C)(C)CC(=O)N1CCCC(C(=O)N2CCOCC2)C1` (stereo not given) had an RP-LC retention time of 673 s.

As to `O=C(NCC1OCCc2ccccc21)C(=O)N1CCCCC1` (stereo not given), the RP-LC retention time is 716 s. Under `O=C(Cn1cc(-c2nc(-c3ccc(Cl)cc3)no2)ccc1=O)N1CCCC1` stands 959 s; under `Cc1noc(C2CN(C(=O)c3ccc4ncsc4c3)C2)n1`, 593 s; under `CC1Cc2cc(-c3cc(CC(=O)NCCc4ccc(S(N)(=O)=O)cc4)no3)ccc2O1` (stereo not given), 701 s.

Molecule `COCCNC(=O)C1CCN(S(=O)(=O)c2ccc3c(c2)NC(=O)CO3)CC1` gave an RP-LC retention time of 862 s.

In turn, `Cc1ccc2c(=O)c(C(=O)N3CCCC3)cn(CC(=O)NC3CCCCC3)c2n1` displayed an RP-LC retention time of 676 s. Under `Cn1cc(CC(=O)NCc2ccc3c(c2)OCO3)c2cccnc21` stands 648 s; under `Cc1nccn1Cc1nc(-c2ccc(Br)cc2)no1`, 663 s; under `O=C(CCn1cnc2cc(-c3noc(-c4ccc(F)c(F)c4)n3)ccc21)N1CCOCC1`, 740 s.

In turn, `O=C(C1CCN(c2nc3cccnc3s2)CC1)N1CCCCC1` yielded an RP-LC retention time of 713 s.
